{"source": "patent US20080031868A1", "about": "“HUMAN LYSOZYME MEDICINE, ITS MANUFACTURING METHOD AND APPLICATION THEREOF” (priority 2005, published 2008)", "key": {"[1]": {"test_system": "drug-resistant suppurative streptococcus", "assay": "Acute or chronic suppurative faucitis model of mice, upper respiratory tract infection", "assay_type": "in vivo", "description": "B. Preparation of the acute or chronic suppurative faucitis model of little mice infected by the drug-resistant suppurative streptococcus with the upper respiratory tract:\n(§1) 10 healthy Kunming mice (18˜22 g), male and female, were infected by the drug-resistant suppurative streptococcus with the upper respiratory tract in way of spraying which induced the acute or chronic suppurative faucitis of mice, and then promptly treated with aerosol (powder or liquid) at the dose of 30000 u/ml/20 g and give medicines three times a day. Observe for one week after infecting and record the efficient rate of mice. […]"}, "[2]": {"test_system": "bronchus pneumonia of mice by sucking the hydrochloric acid", "assay": "Bronchus pneumonia (bronchus lung injury) of mice by sucking atomized hydrochloric acid", "assay_type": "in vivo, Kunming mice", "method": "D. The effect of human lysozyme to bronchus pneumonia of mice by sucking the hydrochloric acid:\n50 mice were equally divided to 5 groups at random, selecting randomly 4 groups among them to make the model of the mice atomized hydrochloric acid.\nEach batch of 10 mice was put in Glass desiccator which equipped the self-made atomizer contained 1 N HCI solution. The principle of electronic supra-frequency shaker was used to atomizate hydrochloric acid, then it was inspired for 1 hour by mice to make model of inspiring bronchus lung injury. Its mechanism is that inspiring acidoid can cause adhesion of leucocyte and increasing expression of ICAM-1 and permeability of endotheliocyte and cellula epithelialis to protein, thereby to cause pneumochysis. Otherwise inspiring acidoid can cause the release of phlegmonosis cytokine. Assembling in lung and reciprocal activation of these cytokine and neutrophilic leukocyte can induce cell adhesion and tissue damage.\n40 mice models were gathered and then randomly divided to 4 groups. 3 groups were treated with drug, 1 group were treated as model group.\nThe concentration of recombinant human lysozyme medicine was set at 15000 u/ml in clinical atomization therapy. The dose was 15000 u per time once daily, I.e 0.5 mg per time. The dose was 1.3×10^−3mg a mice (calculated by weight of 20 g). Human ventilatory capacity (9000 ml/min) corresponded with 375 times of mice ventilatory capacity (24 ml/min). Human single dose (0.5 mg/70 kg) corresponded with 384 times of mice dose (1.3×10^−3 mg/20 g). Two folds between ventilatory capacity and single dose were closed, so clinical human dose was used for atomization therapy of mice. Availability of clinical inspiring lysozyme atomized was higher than breathing amount of mice by itself in atomizer. To ensure the breathing amount of lysozyme, the breathing time were extended for 1 hour. Based on 0.5 mg/ml as low dose, the concentration of 1.0 mg/ml and 2.0 mg/ml were set respectively as middle and high dose. The mice were put into the glass desiccator and then treated with human lysozyme atomized in the compression sprayer (PARL.BOY) once daily, and continued 5-10 days (shown in FIG. 2).\nAs atomization was treated to the 5th and 10th day, half animals (5) of every group were dissected, then the lung tissues were weighed and the lung coefficients were calculated according to the weight. Pathological changes of appearance and the lung tissue were observed respectively by naked eye and pathological section."}, "[3]": {"test_system": "drug-resistant suppurative streptococcus", "assay": "Amygdalitis model of mice, upper respiratory tract infection", "assay_type": "in vivo", "description": "C. The preparation of the amygdalitis model of mice infected by the drug-resistant suppurative streptococcus with the upper respiratory tract:\nas §1, with “female,” for “female, were”, “induce” for “induced”, “amygdalitis” for “acute or chronic suppurative faucitis”, “mice,” for “mice, and”, “suck” for “treated with”, “according to” for “at the dose of”"}, "[4]": {"test_system": "HELA cell", "assay": "Toxicity to HELA cell (CPE, Reed-Muench)", "method": "1. Determination of the Toxicity of Recombinant Human Lysozyme to HELA Cell:\nHELA cells were seeded on 96-well culture plates at the concentration of 400,000/mi and grown at 37° C. in a 5% CO2 incubator for 2 hours. 100 μl recombinant human lysozyme which were double-diluted from 6000 ug/ml to 11.7 ug/ml and positive reference medicine which were double-diluted from 6000 ug/ml to 11.7 ug/ml were respectively added to 3 wells per concentration. At the same time the reference cells were cultivated at 37° C. in a 5% CO2 incubator for 6 days. Inverted microscope was used everyday to observe the cytopathic effect (CPE). The cytopathic effect under 25% was recorded as “+”, the cytopathic effect under 26%˜50% was recorded as “++”, the cytopathic effect under 51%˜75% was recorded as “+++” and the cytopathic effect under 76%˜100% was recorded as “++++”. Drug median toxic dose (TD50) and minimum toxic dose (TD0) were calculated by using Reed-Muench method."}, "[5]": {"test_system": "No. 04 Coronavirus", "assay": "organism not typed", "assay_type": "cell-based", "quoted_text": "HELA cells were seeded on 96-well cultivation plates at the concentration of 400,000/ml and grown to monolayer at 37° C. in 5% CO2 incubator for 24 hours. […] Then 100 TCID50coronavirus liquid were added to HELA cells. At the same time reference cell and reference virous were cultivated at 37° C. in 5% CO2 incubator for 5 to 7 days. At the same time normal cell reference and virous reference were cultivated at 37° C. in 5% CO2 incubator for 5 to 7 days. Inverted microscope was used everyday to observe the cytopathic effect (CPE) of virus. The determination were ended according to the appearance of “+++-++++”. […] The determination was repeated three times."}, "[6]": {"test_system": "No. 04 Coronavirus", "assay": "Inhibition on No. 04 Coronavirus in HELA cells (CPE method)", "assay_type": "cell-based", "quoted_text": "HELA cells were seeded on 96-well cultivation plates at the concentration of 400,000/ml and grown to monolayer at 37° C. in 5% CO2 incubator for 24 hours. After removal of cultivation liquid, coronavirus liquid were added to HELA cells and absorbed at 37° C. in 5% CO2 incubator for 2 hours. […] At the same time reference cells and reference virous were cultivated at 37° C. in 5% CO2 incubator for 5 to 7 days. Inverted microscope was used everyday to observe the cytopathic effect (CPE) of virus. The determination were ended according to the appearance of “+++-++++”. […] The determination was repeated three times."}, "[7]": {"conditions": "10 mice, aerosol 30000 u/ml/20 g three times a day, one week"}, "[8]": {"conditions": "atomized solution and inhalation"}, "[9]": {"conditions": "high dosage 2.0 mg/ml, atomization treated for 5 days"}, "[10]": {"conditions": "high dosage 2.0 mg/ml, atomization treated for 10 days"}, "[11]": {"conditions": "low dosage 0.5 mg/ml, atomization treated for 5 days"}, "[12]": {"conditions": "low dosage 0.5 mg/ml, atomization treated for 10 days"}, "[13]": {"conditions": "median dosage 1.0 mg/ml, atomization treated for 5 days"}, "[14]": {"conditions": "median dosage 1.0 mg/ml, atomization treated for 10 days"}, "[15]": {"conditions": "prevention: drug absorbed 2.5 hours before 100 TCID50 virus, mean of thrice test"}, "[16]": {"conditions": "inhibition: drug added after virus absorbed 2 hours, mean of thrice test"}}, "data": [{"substance": "Human lysozyme: gene recombinant Human Lysozyme (HLZ), active unit 30000 u/mg, batch number 020110; given atomized / as aerosol", "values": [{"measurement": "Efficient %", "setting": "[1]; [7]", "result": 100, "unit": "%"}, {"measurement": "Healing", "setting": "[1]; [7]", "result": 8}, {"measurement": "Invalid", "setting": "[1]; [7]", "result": 0}, {"measurement": "Valid", "setting": "[1]; [7]", "result": 2}, {"measurement": "curative effect to acute or chronic suppurative faucitis of mice", "setting": "[1]; [8]", "result": "obvious curative effect"}, {"measurement": "effect on mice model of bronchus lung injury caused by inspiring hydrochloric acid", "setting": "[2]; atomization", "result": "validated effective"}, {"measurement": "Lung coefficient (g/g) × 10^−3", "setting": "[2]; [9]", "result": "9.1 ± 1.00 (g/g) × 10^−3"}, {"measurement": "Weight", "setting": "[2]; [9]", "result": "29.4 ± 3.3", "unit": "g"}, {"measurement": "Lung coefficient (g/g) × 10^−3", "setting": "[2]; [10]", "result": "8.32 ± 1.84 (g/g) × 10^−3"}, {"measurement": "Weight", "setting": "[2]; [10]", "result": "31.2 ± 2.0", "unit": "g"}, {"measurement": "pathohistology observation of bronchiole and bronchia in lung", "setting": "[2]; high dosage group, 5 days", "result": "little infiltration of a few monocytes and lymphocytes in bronchus between lobules, and a few phlegmasia cells and secretion in part bronchioles"}, {"measurement": "pathological section: animals changed pathologically", "setting": "[2]; high dosage group, 5 days", "result": "2/5"}, {"measurement": "pathological section: animals normal", "setting": "[2]; high dosage group, 5 days", "result": "3/5"}, {"measurement": "Lung coefficient (g/g) × 10^−3", "setting": "[2]; [11]", "result": "7.30 ± 0.43 (g/g) × 10^−3"}, {"measurement": "Weight", "setting": "[2]; [11]", "result": "29.6 ± 1.6", "unit": "g"}, {"measurement": "Lung coefficient (g/g) × 10^−3", "setting": "[2]; [12]", "result": "7.10 ± 0.61 (g/g) × 10^−3"}, {"measurement": "Weight", "setting": "[2]; [12]", "result": "30.7 ± 3.0", "unit": "g"}, {"measurement": "pathohistology observation of bronchiole and bronchia in lung", "setting": "[2]; low dosage group, 5 days", "result": "two spalling of epithelium mucosae in bronchioles and bronchia of one lung tissue, a little erythrocytes in bronchiole lumina of another lung tissue, and normality in the others"}, {"measurement": "pathological section: animals kept normally", "setting": "[2]; low dosage group, 5 days", "result": "4/5"}, {"measurement": "Lung coefficient (g/g) × 10^−3", "setting": "[2]; [13]", "result": "7.8 ± 0.65 (g/g) × 10^−3"}, {"measurement": "Weight", "setting": "[2]; [13]", "result": "29.2 ± 2.4", "unit": "g"}, {"measurement": "Lung coefficient (g/g) × 10^−3", "setting": "[2]; [14]", "result": "8.30 ± 1.40 (g/g) × 10^−3"}, {"measurement": "Weight", "setting": "[2]; [14]", "result": "30.6 ± 2.2", "unit": "g"}, {"measurement": "pathohistology observation of bronchiole and bronchia in lung", "setting": "[2]; median dosage group, 5 days", "result": "little infiltration of a few monocytes and lymphocytes around part bronchioles, intactness of upper strata wall of most bronchioles tunica mucosa, spalling of a few epithelium mucosae"}, {"measurement": "pathological section: animals kept normally", "setting": "[2]; median dosage group, 5 days", "result": "5/5"}, {"measurement": "Efficient %", "setting": "[3]; [7]", "result": 100, "unit": "%"}, {"measurement": "Healing", "setting": "[3]; [7]", "result": 8}, {"measurement": "Invalid", "setting": "[3]; [7]", "result": 0}, {"measurement": "Valid", "setting": "[3]; [7]", "result": 2}, {"measurement": "curative effect to the amygdalitis of mice", "setting": "[3]; [8]", "result": "obvious curative effect"}, {"measurement": "median toxic dose (TD50)", "setting": "[4]", "result": "1500 ± 0", "unit": "µg/mL"}, {"measurement": "minimum toxic dose (TD0)", "setting": "[4]", "result": "750 ± 0", "unit": "µg/mL"}, {"measurement": "median inhibitory concentration (IC50)", "setting": "[5]; [15]", "result": "5.9 ± 0", "unit": "µg/mL"}, {"measurement": "minimum inhibitory concentration (MIC)", "setting": "[5]; [15]", "result": "11.7 ± 0", "unit": "µg/mL"}, {"measurement": "therapeutic index (TI)", "setting": "[5]; prevention: drug before virus", "result": 64}, {"measurement": "therapeutic index (TI)", "setting": "[6]; inhibition: drug added after virus", "result": 16}, {"measurement": "median inhibitory concentration (IC50)", "setting": "[6]; [16]", "result": "23.4 ± 0", "unit": "µg/mL"}, {"measurement": "minimum inhibitory concentration (MIC)", "setting": "[6]; [16]", "result": "46.8 ± 0", "unit": "µg/mL"}]}]}
